In patent publication US5597899A, “Tumor necrosis factor muteins” (Hoffmann-La Roche Inc., priority 1993, dated 1997):

How the values were obtained:
[1] = tested on: human TNFR-p75; test: Solid phase radioligand competition binding assay, E. coli lysates, TNFR-p75; details: 10-fold serial dilutions 10^-2 to 10^-7, < = inhibition but below 50% at 1:100, << = no measurable inhibition at 1:100
Procedure: 10 ml suspensions of E. coli cells transformed and induced as described in Examples I and II were centrifuged at 4'000 rpm for 10 min and resuspended in 0.9 ml of lysis buffer (10 mM Tris-HCl pH 8.0, 5 mM EDTA, 2 mM PMSF, 10 mM benzamidine, 200 units/ml aprotinine and 0.1 mg/ml lysozyme). After 20 min incubation at room temperature 50 μl of 1M MgCl2, 20 μl of 5 mg/ml DNaseI, 50 μl of 5M NaCl and 50 μl of 10% NP-40 were added and the mixture was further incubated at room temperature for 15 min. 0.5 ml of the lysate clarified by centrifugation at 13'000 rpm for 5 min was subjected to ammonium sulfate precipitation (25%-70% cut). The 70% ammonium sulfat pellet was dissolved in 0.2 ml PBS and analyzed by sodium dodecyl sulfate polyacrylamide gel electrophoresis (SDS-PAGE) to confirm presence and approximate amount of the recombinant proteins.
96 well microtiter plates were coated with recombinant human […] TNFR-p75-hγ3 and TNFR-p55-hγ3 fusion proteins (extracellular portion of the receptor fused to the Fc part of human IgG3) at a concentration of 0.3 μg/ml and 0.1 μg/ml, respectively, in phosphate buffered saline (PBS, 100 μl/well, overnight at 4° C.) [Loetscher, H. et al. J. Biol. Chem. 266, 18324-18329 (1991); Lesslauer, W. et al. Eur. J. Immunol. 21, 2883-2886 (1991)]. After blocking with blocking buffer (50 mM Tris pH 7.4, 140 mM NaCl, 5 mM EDTA, 0.02% NAN3, 1% defatted milk powder) the microtiter plate was washed with PBS and incubated in blocking buffer containing 0.1% defatted milk powder with 10 ng/ml human wild-type ^125 I-TNFα and various dilutions of E. coli lysates ranging from 10^-2 to 10^-7 (10-fold serial dilutions). TNFα was labelled by the Iodogen method (Pierce Chemical Company) to a specific activity of about 10-30 μCi/μg. The volume was 100 μl/well and each lysate dilution was assayed in duplicate or triplicate. After three hours at room temperature the wells were thoroughly washed with PBS and counted in a γ-counter. The results are given in Table 2 for lysates comprising the muteins indicated therein.

[2] = tested on: human TNFR-p55; test: Solid phase radioligand competition binding assay, E. coli lysates, TNFR-p55; details: for Dilution of E. coli Lysate for 50% Inhibition of 125I-TNFα Binding (ID50) TNFR-p55: 10-fold serial dilutions 10^-2 to 10^-7, < = inhibition but below 50% at 1:100, << = no measurable inhibition at 1:100; for ID50 TNFR-p55 / ID50 TNFR-p75: ratio = 1 no receptor selectivity, > 1 TNFR-p55 selectivity, < 1 TNFR-p75 selectivity
Procedure: After 20 min incubation at room temperature 50 μl of 1M MgCl2, 20 μl of 5 mg/ml DNaseI, 50 μl of 5M NaCl and 50 μl of 10% NP-40 were added and the mixture was further incubated at room temperature for 15 min. 0.5 ml of the lysate clarified by centrifugation at 13'000 rpm for 5 min was subjected to ammonium sulfate precipitation (25%-70% cut). The 70% ammonium sulfat pellet was dissolved in 0.2 ml PBS and analyzed by sodium dodecyl sulfate polyacrylamide gel electrophoresis (SDS-PAGE) to confirm presence and approximate amount of the recombinant proteins.
TNFα was labelled by the Iodogen method (Pierce Chemical Company) to a specific activity of about 10-30 μCi/μg. The volume was 100 μl/well and each lysate dilution was assayed in duplicate or triplicate. After three hours at room temperature the wells were thoroughly washed with PBS and counted in a γ-counter. The results are given in Table 2 for lysates comprising the muteins indicated therein.

Substance	Dilution of E. coli Lysate for 50% Inhibition of 125I-TNFα Binding (ID50) TNFR-p75 [1]	Dilution of E. coli Lysate for 50% Inhibition of 125I-TNFα Binding (ID50) TNFR-p55 [2]	ID50 TNFR-p55 / ID50 TNFR-p75 [2]
N34G: human TNFα mutein N34G	< 100 fold	330 fold	> 3.3
N34M: human TNFα mutein N34M	< 100 fold	< 100 fold	> 1
N19D: human TNFα mutein N19D	5,000 fold	5,000 fold	1
Y87T-E104G: human TNFα mutein Y87T-E104G	< 100 fold	< 100 fold	1
A145G: human TNFα mutein A145G	6,670 fold	2,500 fold	0.4
D143E: human TNFα mutein D143E	330 fold	< 100 fold	< 0.3
E146R: human TNFα mutein E146R	< 100 fold	6,670 fold	> 67
A145V: human TNFα mutein A145V	2,000 fold	1,000 fold	0.5
N34I: human TNFα mutein N34I	< 100 fold	200 fold	> 2
N34V: human TNFα mutein N34V	< 100 fold	< 100 fold	> 1
N34T: human TNFα mutein N34T	< 100 fold	1,000 fold	> 10
F144L: human TNFα mutein F144L	5,000 fold	5,000 fold	1
R31K: human TNFα mutein R31K	3,330 fold	3,330 fold	1
K65A: human TNFα mutein K65A	33,330 fold	20,000 fold	0.6
I97Y: human TNFα mutein I97Y	330 fold	2,500 fold	7.6
N34D: human TNFα mutein N34D	< 100 fold	250 fold	> 2.5
N34C: human TNFα mutein N34C	< 100 fold	250 fold	> 2.5
Y87E: human TNFα mutein Y87E	< 100 fold	< 100 fold	> 1
L75W: human TNFα mutein L75W	330 fold	220 fold	0.7
A145T: human TNFα mutein A145T	6,670 fold	5,000 fold	0.7
A145K: human TNFα mutein A145K	1,820 fold	< 100 fold	< 0.05
A33D: human TNFα mutein A33D	< 100 fold	< 100 fold	> 1
R31E-S86T: human TNFα mutein R31E-S86T	< 100 fold	2,000 fold	> 20
L29S-S86T: human TNFα mutein L29S-S86T	< 100 fold	200 fold	> 2
S86T: human TNFα mutein S86T	< 100 fold	10,000 fold	> 100
F144D: human TNFα mutein F144D	330 fold	5,000 fold	15.2
A145H: human TNFα mutein A145H	1,670 fold	330 fold	0.2
S99A: human TNFα mutein S99A	6,670 fold	6,670 fold	1
K65W: human TNFα mutein K65W	3,330 fold	500 fold	0.2
